From US10919937B2, “Bicyclic peptide ligands and uses thereof” (BicycleTx Limited, priority 2018, dated 2021)
*1 amine or outer side, *2 acyl side, *3 side chain or, on linkers, in order; H or OH if unused. Where a SMILES comes first, the peptide text is derived from it. Bridges are numbered along the chain shown (N, C = ends). [ ]: non-standard residue; d: D form. X11 = O=C(C[*:1])N1CCN(c2ccc(-c3nc(-c4ccc(N5CCN(C(=O)C[*:2])CC5)cc4)nc(-c4ccc(N5CCN(C(=O)C[*:3])CC5)cc4)n3)cc2)CC1; X7 = O=C(c1ccc(C[*:1])cc1)N1CN(C(=O)c2ccc(C[*:2])cc2)CN(C(=O)c2ccc(C[*:3])cc2)C1

What was measured:
EphA2 = molecular target: T1, EphA2 (Homo sapiens, UniProt P29317); assay: EphA2 SPR Assay; format: binding; settings: n = 2
T1 construct: purchased
Experimental: SPR Measurements: Non-Fc fusion proteins were biotinylated with EZ-Link™ Sulfo-NHS-LC-Biotin for 1 hour in 4 mM sodium acetate, 100 mM NaCl, pH 5.4 with a 3× molar excess of biotin over protein. The degree of labelling was determined using a Fluorescence Biotin QuantificationKit (Thermo) after dialysis of the reaction mixture into PBS. For analysis of peptide binding, a Biacore T200 10 instrument was used utilising a XanTec CMD500D chip. Streptavidin was immobilized on the chip using standard amine-coupling chemistry at 25° C. with HBS—N (10 mM HEPES, 0.15 M NaCl, pH 7.4) as the running buffer. Briefly, the carboxymethyl dextran surface was activated with a 7 min injection of a 1:1 ratio of 0.4 M 1-ethyl-3-(3-dimethylaminopropyl) carbodiimide hydrochloride (EDC)/0.1 M N-hydroxy succinimide (NHS) at a flow rate of 10 μl/min. For capture of streptavidin, the protein was diluted to 0.2 mg/ml in 10 mM sodium acetate (pH 4.5) and captured by injecting 120 μl onto the activated chip surface. Residual activated groups were blocked with a 7 min injection of 1 M ethanolamine (pH 8.5):HBS—N (1:1). Buffer was changed to PBS/0.05% Tween 20 and biotinylated EphA2 was captured to a level of 500-1500 RU using a dilution of protein to 0.2 μM in buffer. […]

MT1-MMP = MT1-MMP (Homo sapiens, UniProt P50281); settings: bicyclic peptide formed with TBMB scaffold; MT1-MMP binder; cited from earlier work
CAIX = CAIX (Homo sapiens, UniProt Q16790); settings: bicyclic peptide formed with TBMB scaffold; CAIX binder; cited from earlier work

T1 sequence (P29317 24-976, species assumed): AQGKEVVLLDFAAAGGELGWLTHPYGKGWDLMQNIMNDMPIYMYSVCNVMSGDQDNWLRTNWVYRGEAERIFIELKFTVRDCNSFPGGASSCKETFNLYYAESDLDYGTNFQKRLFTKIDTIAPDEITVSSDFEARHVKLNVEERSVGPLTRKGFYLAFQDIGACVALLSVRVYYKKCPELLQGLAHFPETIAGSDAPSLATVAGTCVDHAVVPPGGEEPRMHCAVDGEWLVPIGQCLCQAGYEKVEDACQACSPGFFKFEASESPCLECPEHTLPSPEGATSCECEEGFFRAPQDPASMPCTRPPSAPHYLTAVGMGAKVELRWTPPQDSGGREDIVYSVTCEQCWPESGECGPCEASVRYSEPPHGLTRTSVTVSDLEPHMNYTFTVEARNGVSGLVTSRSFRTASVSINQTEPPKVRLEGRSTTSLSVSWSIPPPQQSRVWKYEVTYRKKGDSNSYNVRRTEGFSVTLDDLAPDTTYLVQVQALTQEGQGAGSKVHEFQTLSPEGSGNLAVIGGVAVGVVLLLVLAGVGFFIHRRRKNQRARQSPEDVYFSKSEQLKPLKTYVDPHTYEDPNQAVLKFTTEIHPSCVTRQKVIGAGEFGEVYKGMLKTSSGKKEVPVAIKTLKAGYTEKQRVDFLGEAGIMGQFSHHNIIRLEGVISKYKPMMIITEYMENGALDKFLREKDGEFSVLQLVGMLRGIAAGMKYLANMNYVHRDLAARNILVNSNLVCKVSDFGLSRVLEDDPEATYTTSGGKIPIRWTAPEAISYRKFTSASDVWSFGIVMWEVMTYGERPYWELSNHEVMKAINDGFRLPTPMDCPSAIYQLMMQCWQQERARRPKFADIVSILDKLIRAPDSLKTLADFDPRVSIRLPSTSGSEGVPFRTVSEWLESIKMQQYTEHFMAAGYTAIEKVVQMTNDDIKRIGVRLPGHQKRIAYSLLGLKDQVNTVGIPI

Row | Molecule | Kd (EphA2) | also measured
1 | CC(C)[C@H](NC(=O)[C@H](CC(=O)O)NC(=O)[C@H](C)N)C(=O)N[C@@H](Cc1cnc[nH]1)C(=O)N[C@H]1CSCc2ccc(cc2)C(=O)N2CN3CN(C2)C(=O)c2ccc(cc2)CSC[C@H](NC(=O)[C@H](Cc2c[nH]c4ccccc24)NC(=O)[C@H](Cc2ccccc2)NC(=O)[C@H]2CCCN2C(=O)CNC(=O)[C@H](Cc2c[nH]c4ccccc24)NC(=O)[C@@H]2CCCN2C1=O)C(=O)N1CCC[C@H]1C(=O)N[C@@H](C(C)C)C(=O)N[C@H](CC(N)=O)C(=O)N[C@H](CCCNC(=N)N)C(=O)N1CCC[C@@H]1C(=O)NCC(=O)N[C@H](C(=O)N[C@@H](C)C(=O)O)CSCc1ccc(cc1)C3=O [I-103] (H-ADVHCPWG[dP]FWCPV[dN][dR][dP]GCA-OH; linker 5-12-19 via X7) | > 10 µM | –
2 | CC(C)[C@H](NC(=O)[C@H](CC(=O)O)NC(=O)[C@H](C)N)C(=O)N[C@@H](Cc1cnc[nH]1)C(=O)N[C@H]1CSCC(=O)N2CCN(CC2)c2ccc(cc2)-c2nc3nc(n2)-c2ccc(cc2)N2CCN(CC2)C(=O)CSC[C@H](NC(=O)[C@H](Cc2c[nH]c4ccccc24)NC(=O)[C@H](Cc2ccccc2)NC(=O)[C@H]2CCCN2C(=O)CNC(=O)[C@H](Cc2c[nH]c4ccccc24)NC(=O)[C@@H]2CCCN2C1=O)C(=O)N1CCC[C@H]1C(=O)N[C@@H](C(C)C)C(=O)N[C@H](CC(N)=O)C(=O)N[C@H](CCCNC(=N)N)C(=O)N1CCC[C@@H]1C(=O)NCC(=O)N[C@H](C(=O)N[C@@H](C)C(=O)O)CSCC(=O)N1CCN(CC1)c1ccc-3cc1 [I-104] (H-ADVHCPWG[dP]FWCPV[dN][dR][dP]GCA-OH; linker 5-12-19 via X11) | < 0.5 µM | –
3 | βAla-Sar10-A-C(D-Ala)NE(1Nal)(D-Ala)CEDFYD(tBuGLy)C (AXACANEXACEDFYDGC; βAla-Sar10 N-terminal; non-natural residues; molecular scaffold; MOD_RES (1)..(1) Beta-Ala; MOD_RES (2)..(2) Sar10; MOD_RES (5)..(5) D-Ala; MOD_RES (8)..(8) 1Nal; MOD_RES (9)..(9) D-Ala; MOD_RES (16)..(16) tBu-Gly) [17-69-07-N241, treated with molecular scaffold reagents] | – | Kd (MT1-MMP): 1.2 nM
4 | βAla-Sar10-A-CTECWVDGWVPC (AXACTECWVDGWVPC; βAla-Sar10 N-terminal; TBMB scaffold; MOD_RES (1)..(1) Beta-Ala; MOD_RES (2)..(2) Sar10) [compound 2] | – | Kd (CAIX): 10 nM
